# From patent US4631274A, “Halovinyl cephem compounds” (Fujisawa Pharmceutical Co., Ltd., priority 1984, dated 1986)
# What was measured:
# Proteus mirabilis 18 = assay: In vitro antibacterial activity, two-fold agar-plate dilution method (MIC); type: cell-based; conditions: HI-agar, 37° C., 20 hours, read-out: MIC (minimal inhibitory concentration)
# Protocol: (§1) In vitro antibacterial activity was determined by the two-fold agar-plate dilution method as described below.
# (§2) One loopful of an overnight culture of each test strain in Trypticase-soy broth (10^8 viable cells per ml) was streaked on heart infusion agar (HI-agar) containing graded concentrations of representative test compound, and the minimal inhibitory concentration (MIC) was expressed in terms of μg/ml after incubation at 37° C. for 20 hours.
# Proteus vulgaris 2 = assay: as above; type: cell-based; conditions: HI-agar, 37° C., 20 hours, read-out: MIC (minimal inhibitory concentration)
# Protocol: as §1, §2
# [1] = Urinary excretion in rats after oral administration; type: in vivo; conditions: rat, urine, 20 mg/kg, bioassay, read-out: Urinary recovery in 24 hours (%)
# Protocol: Urine of rats was collected with a urine collector at 0 to 6, and 6 to 24 hours after oral administration of 20 mg/kg of the test antibiotic. The antibiotic levels in the urine samples were bioassayed with the standard solution prepared with M/15 phosphate buffer (pH 7.0) and the urinary recovery in 24 hours was calculated.
# in vivo = conditions: rat, po, 20 mg/kg
# Protocol: Rats anesthetized with pentobarbital were fixed in supine position, and a polyethylene cannula was inserted into the bile duct. Bile samples were collected at 0 to 3, 3 to 6, and 6 to 24 hours after oral administration of 20 mg/kg of the test antibiotic. The antibiotic levels in the bile samples were bioassayed with the standard solution prepared with M/15 phosphate buffer (pH 7.0) and the biliary recovery in 24 hours were calculated.
structure (smiles),measurement,setting,value
"Nc1nc(/C(=N/OCC(=O)O)C(=O)NC2C(=O)N3C(C(=O)O)=C(/C=C/Cl)CSC23)cs1 (stereo not drawn) [A, 7-[2-Carboxymethoxyimino-2-(2-aminothiazol-4-yl)acetamido]-3-[(E)-2-chlorovinyl]-3-cephem-4-carboxylic acid (syn isomer)]",MIC,Proteus mirabilis 18,< 0.025 µg/mL
same,MIC,Proteus vulgaris 2,< 0.025 µg/mL
same,dose excreted at 24 h,[1],51.1%
same,dose excreted at 24 h,in vivo,24.2%
